#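 Cells were grown in 96-well plates and exposed to each compound for 48 hours at five concentrations; endpoints were interpolated linearly between bracketing concentrations, or set to the highest concentration if not reached. Definition used: TGI = concentration required for complete inhibition of growth.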
# Columns and labels:
# Assay in all cases: NCI tumour cell line growth inhibition, 48 h
# 786-0 renal = tested on: 786-0 renal
# SNB-19 CNS = tested on: SNB-19 CNS
# MALME-3M melanoma = tested on: MALME-3M melanoma
# UACC-62 melanoma = tested on: UACC-62 melanoma
# A498 renal = tested on: A498 renal
# MCF7 breast = tested on: MCF7 breast
# NCI-H460 lung = tested on: NCI-H460 lung
# NCI-H23 lung = tested on: NCI-H23 lung
# SF-268 CNS = tested on: SF-268 CNS
# DLD-1 colon = tested on: DLD-1 colon
# MOLT-4 leukemia = tested on: MOLT-4 leukemia
# XF 498 CNS = tested on: XF 498 CNS
# CCRF-CEM leukemia = tested on: CCRF-CEM leukemia
# HS 578T breast = tested on: HS 578T breast
# MDA-N = tested on: MDA-N
# HCC-2998 colon = tested on: HCC-2998 colon
# UO-31 renal = tested on: UO-31 renal
# OVCAR-3 ovarian = tested on: OVCAR-3 ovarian
# OVCAR-5 ovarian = tested on: OVCAR-5 ovarian
# EKVX NSCLC = tested on: EKVX NSCLC
# CAKI-1 renal = tested on: CAKI-1 renal
# U251 CNS = tested on: U251 CNS
# HOP-18 NSCLC = tested on: HOP-18 NSCLC
# M19-MEL melanoma = tested on: M19-MEL melanoma
# TK-10 renal = tested on: TK-10 renal
# ACHN renal = tested on: ACHN renal
# SK-MEL-28 melanoma = tested on: SK-MEL-28 melanoma
# SN12C renal = tested on: SN12C renal
# M14 melanoma = tested on: M14 melanoma
# PC-3 prostate = tested on: PC-3 prostate
# DMS 273 small cell lung = tested on: DMS 273 small cell lung
# SNB-78 CNS = tested on: SNB-78 CNS
# RXF-631 renal = tested on: RXF-631 renal
# LOX IMVI melanoma = tested on: LOX IMVI melanoma
# UACC-257 melanoma = tested on: UACC-257 melanoma
# HT29 colon = tested on: HT29 colon
# NCI-H226 lung = tested on: NCI-H226 lung
# COLO 205 colon = tested on: COLO 205 colon
# BT-549 breast = tested on: BT-549 breast
# A549 NSCLC = tested on: A549 NSCLC
# RPMI-8226 leukemia = tested on: RPMI-8226 leukemia
# KM20L2 colon = tested on: KM20L2 colon
# MDA-MB-231 breast = tested on: MDA-MB-231 breast
# RXF 393 renal = tested on: RXF 393 renal
# HOP-62 NSCLC = tested on: HOP-62 NSCLC
# IGROV1 ovarian = tested on: IGROV1 ovarian
# HL-60(TB) leukemia = tested on: HL-60(TB) leukemia
# SK-MEL-5 melanoma = tested on: SK-MEL-5 melanoma
# NCI-H522 lung = tested on: NCI-H522 lung
# OVCAR-4 ovarian = tested on: OVCAR-4 ovarian
# SK-OV-3 ovarian = tested on: SK-OV-3 ovarian
# SK-MEL-2 melanoma = tested on: SK-MEL-2 melanoma
# MDA-MB-435 = tested on: MDA-MB-435
# SNB-75 CNS = tested on: SNB-75 CNS
# SF-295 CNS = tested on: SF-295 CNS
# HCT-116 colon = tested on: HCT-116 colon
# HCT-15 colon = tested on: HCT-15 colon
# DMS 114 small cell lung = tested on: DMS 114 small cell lung
# HOP-92 NSCLC = tested on: HOP-92 NSCLC
# SF-539 CNS = tested on: SF-539 CNS
# KM12 colon = tested on: KM12 colon
# DU-145 prostate = tested on: DU-145 prostate
# SW-620 colon = tested on: SW-620 colon
# T-47D breast = tested on: T-47D breast
# SR leukemia = tested on: SR leukemia
# LXFL 529 NSCLC = tested on: LXFL 529 NSCLC
# OVCAR-8 ovarian = tested on: OVCAR-8 ovarian
# K-562 leukemia = tested on: K-562 leukemia
# SN12K1 renal = tested on: SN12K1 renal
# NCI/ADR-RES ovarian = tested on: NCI/ADR-RES ovarian
# P388/ADR leukemia = tested on: P388/ADR leukemia
# P388 leukemia = tested on: P388 leukemia
structure (smiles),measurement,setting,value
CC1OC(CC(=O)O)CC2=C1C(=O)c1c(O)cccc1C2=O (stereo not drawn),TGI,786-0 renal,0.336 µM
same,TGI,SNB-19 CNS,2.98 µM
same,TGI,MALME-3M melanoma,0.495 µM
same,TGI,UACC-62 melanoma,0.268 µM
same,TGI,A498 renal,2.36 µM
same,TGI,MCF7 breast,0.368 µM
same,TGI,NCI-H460 lung,3.58 µM
same,TGI,NCI-H23 lung,1.51 µM
same,TGI,SF-268 CNS,1.33 µM
same,TGI,DLD-1 colon,0.0781 µM
same,TGI,MOLT-4 leukemia,0.115 µM
same,TGI,XF 498 CNS,0.324 µM
same,TGI,CCRF-CEM leukemia,0.0957 µM
same,TGI,HS 578T breast,0.452 µM
same,TGI,MDA-N,0.518 µM
same,TGI,HCC-2998 colon,1.69 µM
same,TGI,UO-31 renal,1.07 µM
same,TGI,OVCAR-3 ovarian,0.299 µM
same,TGI,OVCAR-5 ovarian,2.86 µM
same,TGI,EKVX NSCLC,2.02 µM
same,TGI,CAKI-1 renal,0.334 µM
same,TGI,U251 CNS,2.38 µM
same,TGI,HOP-18 NSCLC,3.88 µM
same,TGI,M19-MEL melanoma,0.213 µM
same,TGI,TK-10 renal,1.82 µM
same,TGI,ACHN renal,0.658 µM
same,TGI,SK-MEL-28 melanoma,0.2 µM
same,TGI,SN12C renal,0.716 µM
same,TGI,M14 melanoma,0.389 µM
same,TGI,PC-3 prostate,0.817 µM
same,TGI,DMS 273 small cell lung,0.594 µM
same,TGI,SNB-78 CNS,0.383 µM
same,TGI,RXF-631 renal,3.01 µM
same,TGI,LOX IMVI melanoma,0.111 µM
same,TGI,UACC-257 melanoma,0.228 µM
same,TGI,HT29 colon,0.427 µM
same,TGI,NCI-H226 lung,3.13 µM
same,TGI,COLO 205 colon,0.169 µM
same,TGI,BT-549 breast,0.361 µM
same,TGI,A549 NSCLC,7.96 µM
same,TGI,RPMI-8226 leukemia,0.241 µM
same,TGI,KM20L2 colon,1.2 µM
same,TGI,MDA-MB-231 breast,0.707 µM
same,TGI,RXF 393 renal,0.103 µM
same,TGI,HOP-62 NSCLC,2.94 µM
same,TGI,IGROV1 ovarian,0.721 µM
same,TGI,HL-60(TB) leukemia,0.0582 µM
same,TGI,SK-MEL-5 melanoma,1.15 µM
same,TGI,NCI-H522 lung,< 0.0251 µM
same,TGI,OVCAR-4 ovarian,0.742 µM
same,TGI,SK-OV-3 ovarian,12.7 µM
same,TGI,SK-MEL-2 melanoma,1.14 µM
same,TGI,MDA-MB-435,0.283 µM
same,TGI,SNB-75 CNS,2.86 µM
same,TGI,SF-295 CNS,2.51 µM
same,TGI,HCT-116 colon,0.243 µM
same,TGI,HCT-15 colon,0.183 µM
same,TGI,DMS 114 small cell lung,0.288 µM
same,TGI,HOP-92 NSCLC,0.331 µM
same,TGI,SF-539 CNS,2.43 µM
same,TGI,KM12 colon,3.49 µM
same,TGI,DU-145 prostate,2.5 µM
same,TGI,SW-620 colon,0.207 µM
same,TGI,T-47D breast,4.4 µM
same,TGI,SR leukemia,0.159 µM
same,TGI,LXFL 529 NSCLC,0.218 µM
same,TGI,OVCAR-8 ovarian,1.1 µM
same,TGI,K-562 leukemia,0.36 µM
O=C(CCCN1CCC(C(O)c2ccc(F)cc2)CC1)c1ccc(F)cc1 (stereo not drawn),TGI,786-0 renal,96.6 µM
same,TGI,SNB-19 CNS,114 µM
same,TGI,SN12K1 renal,108 µM
same,TGI,MALME-3M melanoma,113 µM
same,TGI,UACC-62 melanoma,114 µM
same,TGI,A498 renal,94.4 µM
same,TGI,MCF7 breast,122 µM
same,TGI,NCI-H460 lung,115 µM
same,TGI,NCI-H23 lung,134 µM
same,TGI,SF-268 CNS,122 µM
same,TGI,DLD-1 colon,120 µM
same,TGI,MOLT-4 leukemia,142 µM
same,TGI,XF 498 CNS,15.1 µM
same,TGI,CCRF-CEM leukemia,228 µM
same,TGI,HS 578T breast,116 µM
same,TGI,MDA-N,116 µM
same,TGI,HCC-2998 colon,93.4 µM
same,TGI,UO-31 renal,79.3 µM
same,TGI,OVCAR-3 ovarian,116 µM
same,TGI,NCI/ADR-RES ovarian,149 µM
same,TGI,OVCAR-5 ovarian,116 µM
same,TGI,EKVX NSCLC,136 µM
same,TGI,P388/ADR leukemia,141 µM
same,TGI,CAKI-1 renal,114 µM
same,TGI,U251 CNS,106 µM
same,TGI,HOP-18 NSCLC,142 µM
same,TGI,M19-MEL melanoma,115 µM
same,TGI,TK-10 renal,86.8 µM
same,TGI,ACHN renal,99.9 µM
same,TGI,SK-MEL-28 melanoma,118 µM
same,TGI,SN12C renal,141 µM
same,TGI,M14 melanoma,109 µM
same,TGI,PC-3 prostate,99.6 µM
same,TGI,DMS 273 small cell lung,118 µM
same,TGI,SNB-78 CNS,123 µM
same,TGI,P388 leukemia,119 µM
same,TGI,LOX IMVI melanoma,103 µM
same,TGI,UACC-257 melanoma,121 µM
same,TGI,HT29 colon,92.7 µM
same,TGI,NCI-H226 lung,111 µM
same,TGI,COLO 205 colon,110 µM
same,TGI,BT-549 breast,93 µM
same,TGI,A549 NSCLC,123 µM
same,TGI,RPMI-8226 leukemia,168 µM
same,TGI,KM20L2 colon,96 µM
same,TGI,MDA-MB-231 breast,89.7 µM
same,TGI,RXF 393 renal,98.3 µM
same,TGI,HOP-62 NSCLC,125 µM
same,TGI,IGROV1 ovarian,130 µM
same,TGI,HL-60(TB) leukemia,120 µM
same,TGI,SK-MEL-5 melanoma,99.3 µM
same,TGI,NCI-H522 lung,139 µM
same,TGI,OVCAR-4 ovarian,134 µM
same,TGI,SK-OV-3 ovarian,138 µM
same,TGI,SK-MEL-2 melanoma,113 µM
same,TGI,MDA-MB-435,109 µM
same,TGI,SNB-75 CNS,98.5 µM
same,TGI,SF-295 CNS,118 µM
same,TGI,HCT-116 colon,116 µM
same,TGI,HCT-15 colon,123 µM
same,TGI,DMS 114 small cell lung,108 µM
same,TGI,HOP-92 NSCLC,60.4 µM
same,TGI,SF-539 CNS,113 µM
same,TGI,KM12 colon,116 µM
same,TGI,DU-145 prostate,118 µM
same,TGI,SW-620 colon,123 µM
same,TGI,T-47D breast,137 µM
same,TGI,SR leukemia,201 µM
same,TGI,OVCAR-8 ovarian,125 µM
same,TGI,K-562 leukemia,154 µM
